Laboratory results from US8178677B2, “Hydroxyalkyl substituted imidazoquinolines” (3M Innovative Properties Company, priority 2005, dated 2012).
Where a name gives a salt, the structure may show the parent alone. Read-outs that look alike come from different tables or passages of the source.

Tests used:
[1] = tested on: interferon (α) (IFN-α) induction in human peripheral blood mononuclear cells (PBMC); test: Cytokine induction in human cells (PBMC): IFN-α secreted into culture media, ELISA; type: cell-based; conditions: read-out: Minimum Effective Concentration (μM) IFN
Description: (§1) Cytokine Induction in Human Cells
(§2) An in vitro human blood cell system is used to assess cytokine induction. Activity is based on the measurement of interferon (α) and tumor necrosis factor (α) (IFN-α and TNF-α, respectively) secreted into culture media as described by Testerman et. al. in “Cytokine Induction by the Immunomodulators Imiquimod and S-27609”, Journal of Leukocyte Biology, 58, 365-372 (September, 1995).
(§3) Blood Cell Preparation for Culture
(§4) Whole blood from healthy human donors is collected by venipuncture into vacutainer tubes or syringes containing EDTA. Peripheral blood mononuclear cells (PBMC) are separated from whole blood by density gradient centrifugation using HISTOPAQUE-1077 (Sigma, St. Louis, Mo.) or Ficoll-Paque Plus (Amersham Biosciences Piscataway, N.J.). Blood is diluted 1:1 with Dulbecco's Phosphate Buffered Saline (DPBS) or Hank's Balanced Salts Solution (HBSS). Alternately, whole blood is placed in Accuspin (Sigma) or LeucoSep (Greiner Bio-One, Inc., Longwood, Fla.) centrifuge frit tubes containing density gradient medium. The PBMC layer is collected and washed twice with DPBS or HBSS and re-suspended at 4×10^6 cells/mL in RPMI complete. The PBMC suspension is added to 96 well flat bottom sterile tissue culture plates containing an equal volume of RPMI complete media containing test compound.
(§5) The compounds are solubilized in dimethyl sulfoxide (DMSO). The DMSO concentration should not exceed a final concentration of 1% for addition to the culture wells. The compounds are generally tested at concentrations ranging from 30-0.014 μM. Controls include cell samples with media only, cell samples with DMSO only (no compound), and cell samples with reference compound.
(§6) The solution of test compound is added at 60 μM to the first well containing RPMI complete and serial 3 fold dilutions are made in the wells. The PBMC suspension is then added to the wells in an equal volume, bringing the test compound concentrations to the desired range (usually 30-0.014 μM). The final concentration of PBMC suspension is 2×10^6 cells/mL. The plates are covered with sterile plastic lids, mixed gently and then incubated for 18 to 24 hours at 37° C. in a 5% carbon dioxide atmosphere.
(§7) Following incubation the plates are centrifuged for 10 minutes at 1000 rpm (approximately 200×g) at 4° C. The cell-free culture supernatant is removed and transferred to sterile polypropylene tubes. Samples are maintained at −30 to −70° C. until analysis. The samples are analyzed for IFN-α by ELISA and for TNF-α by IGEN/BioVeris Assay.
(§8) Interferon (α) and Tumor Necrosis Factor (α) Analysis
IFN-α concentration is determined with a human multi-subtype calorimetric sandwich ELISA (Catalog Number 41105) from PBL Biomedical Laboratories, Piscataway, N.J. Results are expressed in pg/mL.
(§9) In total, the data output of the assay consists of concentration values of TNF-α and IFN-α (y-axis) as a function of compound concentration (x-axis).
Analysis of the data has two steps. First, the greater of the mean DMSO (DMSO control wells) or the experimental background (usually 20 pg/mL for IFN-α and 40 pg/mL for TNF-α) is subtracted from each reading. If any negative values result from background subtraction, the reading is reported as “*”, and is noted as not reliably detectable. In subsequent calculations and statistics, “*”, is treated as a zero. Second, all background subtracted values are multiplied by a single adjustment ratio to decrease experiment to experiment variability. The adjustment ratio is the area of the reference compound in the new experiment divided by the expected area of the reference compound based on the past 61 experiments (unadjusted readings). […] The reference compound used is 2-[4-amino-2-ethoxymethyl-6,7,8,9-tetrahydro-α,α-dimethyl-1H-imidazo[4,5-c]quinolin-1-yl]ethanol hydrate (U.S. Pat. No. 5,352,784; Example 91) and the expected area is the sum of the median dose values from the past 61 experiments. […]

[2] = tested on: tumor necrosis factor (α) (TNF-α) induction in human peripheral blood mononuclear cells (PBMC); test: Cytokine induction in human cells (PBMC): TNF-α secreted into culture media, ORIGEN M-Series immunoassay; type: cell-based; conditions: for minimal effective concentration: Homo sapiens, PBMC, read-out: Minimum Effective Concentration (μM) TNF; for Maximal Response (pg/mL) TNF: maximal response in dose response curve, background-subtracted, reference-adjusted, * = below background of 40 pg/mL
Description: as §1, §2, §3, §4, §5, §6, §7, §8
The TNF-α concentration is determined by ORIGEN M-Series Immunoassay and read on an IGEN M-8 analyzer from BioVeris Corporation, formerly known as IGEN International, Gaithersburg, Md. The immunoassay uses a human TNF-α capture and detection antibody pair (Catalog Numbers AHC3419 and AHC3712) from Biosource International, Camarillo, Calif. Results are expressed in pg/mL.
as §9
Analysis of the data has two steps. First, the greater of the mean DMSO (DMSO control wells) or the experimental background (usually 20 pg/mL for IFN-α and 40 pg/mL for TNF-α) is subtracted from each reading. If any negative values result from background subtraction, the reading is reported as “*”, and is noted as not reliably detectable. In subsequent calculations and statistics, “*”, is treated as a zero. Second, all background subtracted values are multiplied by a single adjustment ratio to decrease experiment to experiment variability. The adjustment ratio is the area of the reference compound in the new experiment divided by the expected area of the reference compound based on the past 61 experiments (unadjusted readings). […]

[3] = 18 to 24 hours incubation, tested 30-0.014 μM, lowest concentration inducing response over 20 pg/mL IFN-α, median of # experiments
[4] = lowest tested concentration inducing IFN-α over 20 pg/mL, median where more than one experiment
[5] = 18 to 24 hours incubation, tested 30-0.014 μM, lowest concentration inducing response over 40 pg/mL TNF-α, median of # experiments
[6] = lowest tested concentration inducing TNF-α over 40 pg/mL, median where more than one experiment
[7] = median where more than one experiment

Row | melting point [°C] | SMILES | minimal effective concentration [1, 3] [µM] | minimal effective concentration [1, 4] [µM] | minimal effective concentration [2, 5] [µM] | minimal effective concentration [2, 6] [µM] | Maximal Response (pg/mL) TNF [2, 7]
1 | – | CCCc1nc2c(N)nc3ccccc3c2n1CC(C)(C)NS(C)(=O)=O [Analog 3, N-[2-(4-Amino-2-propyl-1H-imidazo[4,5-c]quinolin-1-yl)-1,1-dimethylethyl]methanesulfonamide, reference compound] | 0.12 | 0.12 | 0.37 | 0.37 | –
2 | 216 to 219 | CS(=O)(=O)NCCCCn1c(CO)nc2c(N)nc3ccccc3c21 [Example 147, N-[4-(4-amino-2-hydroxymethyl-1H-imidazo[4,5-c]quinolin-1-yl)butyl]methanesulfonamide] | – | 0.37 | – | > 30 | * (TNF below experimental background of 40 pg/mL.)
3 | 196 to 199 | CC(C)NC(=O)NC(C)(C)Cn1c(CO)nc2c(N)nc3ccccc3c21 [Example 142, 1-[2-(4-Amino-2-hydroxymethyl-1H-imidazo[4,5-c]quinolin-1-yl)-1,1-dimethylethyl]-3-(1-methylethyl)urea] | – | 1.11 | – | > 30 | * (TNF below experimental background of 40 pg/mL.)
4 | 183 to 186 | Nc1nc2ccccc2c2c1nc(CO)n2CCCCNC(=O)C1CCCC1 [Example 145, N-{4-[4-amino-2-(hydroxymethyl)-1H-imidazo[4,5-c]quinolin-1-yl]butyl}cyclopentanecarboxamide] | – | – | – | – | –
5 | 196 to 198 | CC(C)C(=O)NCCCn1c(CCO)nc2c(N)nc3ccccc3c21 [Example 141, N-{3-[4-Amino-2-(2-hydroxyethyl)-1H-imidazo[4,5-c]quinolin-1-yl]propyl}-2-methylpropionamide] | – | 0.04 | – | 30 | –
6 | 99 to 100 | CC(C)[C@H](NC(=O)OCc1ccccc1)C(=O)OCc1nc2c(N)nc3ccccc3c2n1CCCCNS(C)(=O)=O [Example 148, (4-Amino-1-{4-[(methylsulfonyl)amino]butyl}-1H-imidazo[4,5-c]quinolin-2-yl)methyl N-[(benzyloxy)carbonyl]-L-valinate] | – | – | – | – | –
7 | 206 to 208 | CS(=O)(=O)NCCCCn1c(CCO)nc2c(N)nc3ccccc3c21 [Example 3, N-{4-[4-Amino-2-(2-hydroxyethyl)-1H-imidazo[4,5-c]quinolin-1-yl]butyl}methanesulfonamide] | – | 0.37 | – | > 30 | * (TNF below experimental background of 40 pg/mL.)
8 | 222 to 224 | CC(C)C(=O)NCCCCn1c(CO)nc2c(N)nc3ccccc3c21 (as salt: salt) [Example 146, N-[4-(4-amino-2-hydroxymethyl-1H-imidazo[4,5-c]quinolin-1-yl)butyl]isobutyramide] | – | – | – | – | –
9 | – | CCOCc1nc2c(N)nc3ccccc3c2n1CC(C)(C)NS(C)(=O)=O [Analog 4, N-[2-(4-Amino-2-ethoxymethyl-1H-imidazo[4,5-c]quinolin-1-yl)-1,1-dimethylethyl]methanesulfonamide, reference compound] | 0.04 | 0.04 | 0.37 | 0.37 | –
10 | 245 to 246 | Nc1nc2ccccc2c2c1nc(CCO)n2CCCNC(=O)c1cc2ccccc2cn1 [Example 2, N-{3-[4-Amino-2-(2-hydroxyethyl)-1H-imidazo[4,5-c]quinolin-1-yl]propyl}isoquinoline-3-carboxamide] | – | 3.33 | – | 3.33 | –
11 | – | CCc1nc2c(N)nc3ccccc3c2n1CC(C)(C)NS(C)(=O)=O [Analog 2, N-[2-(4-Amino-2-ethyl-1H-imidazo[4,5-c]quinolin-1-yl)-1,1-dimethylethyl]methanesulfonamide, reference compound] | 0.12 | 0.12 | 1.11 | 1.11 | –
12 | 248 to 250 | CC(C)(Cn1c(CO)nc2c(N)nc3ccccc3c21)NC(=O)C1CCCCC1 [Example 5, N-[2-(4-Amino-2-hydroxymethyl-1H-imidazo[4,5-c]quinolin-1-yl)-1,1-dimethylethyl]cyclohexanecarboxamide] | – | 0.37 | – | 10 | –
13 | – | Cc1nc2c(N)nc3ccccc3c2n1CC(C)(C)NS(C)(=O)=O [Analog 1, N-[2-(4-Amino-2-methyl-1H-imidazo[4,5-c]quinolin-1-yl)-1,1-dimethylethyl]methanesulfonamide, reference compound] | 0.37 | 0.37 | 3.33 | 3.33 | –
14 | 161 to 163 | CC(C)[C@H](N)C(=O)OCc1nc2c(N)nc3ccccc3c2n1CCCCNS(C)(=O)=O [Example 149, (4-Amino-1-{4-[(methylsulfonyl)amino]butyl}-1H-imidazo[4,5-c]quinolin-2-yl)methyl L-valinate] | – | – | – | – | –
15 | 239 to 241 | Nc1nc2ccccc2c2c1nc(CO)n2CC1CCOCC1 [Example 150, [4-Amino-1-(tetrahydro-2H-pyran-4-ylmethyl)-1H-imidazo[4,5-c]quinolin-2-yl]methanol] | – | – | – | – | –
16 | – | COCCc1nc2c(N)nc3ccccc3c2n1CC(C)(C)NS(C)(=O)=O [Analog 5, N-{2-[4-Amino-2-(2-methoxyethyl)-1H-imidazo[4,5-c]quinolin-1-yl]-1,1-dimethylethyl}methanesulfonamide, reference compound] | 0.014 | 0.014 | 0.12 | 0.12 | –
